# Laboratory results from patent publication US20060160095A1, “Survivin” (EiRx Therapeutics Limited, priority 2002, published 2006).
# Assays:
# Type in all cases: cell-based, human
# Neutrophils = assay: Neutrophil apoptosis by oligonucleosomal DNA fragments after 2-MOE oligonucleotides; conditions: cytokine alone
# Protocol: Neutrophil apoptosis is assessed by oligonucleosomal DNA fragmentation (Dibbert et al.(1999) Proc. Natl. Acad. Sci. USA 96, 13330-13335; Hebestreit et al. (1998), J. Exp. Med. 187, 415-425) according to Nicoletti et al. ((1991) J. Immunol. Meth. 139, 271-279). Briefly, cells are resuspended in hypotonic fluorochrome solution containing 50 μg/ml propidium iodide (Sigma Buchs, Switzerland), 0.1% sodium citrate (Sigma) and 0.1% (vol/vol) Triton-X 100 (Sigma), incubated at 4° C. for 10 h, and analyzed by flow cytometry (FACScan, Becton Dickinson, Heidelberg, Germany).
# (§1) The 20-mer first generation antisense oligonucleotide 4003 targeting the survivin mRNA has been described above. The second generation 2′-O-methoxy-ethoxy (2′-MOE) gapmer version of 4003 (as) and its 3-base mismatch sequence control (ms) are synthesized using an Applied Biosystems 394B automated DNA synthesizer as described (De Mesaeker et al. (1995) Acc. Chem. Res. 28, 366-374). Sequences are as follows: antisense survivin, cscscsasgsCsCsTsTsCsCsAsGsCsTscscststsg; mismatch survivin, cscstsasgsCsCsTsTsCsCsAsGsGsTscscstsasg. Small letters refer to 2′-O-(2-methoxy)-ethyl-modified nucleotides, capital letters to DNA, and “s” refers to phosphorothioate linkages. Cells isolated and cultured as described above are treated with survivin antisense oligonucleotides (as) or survivin mismatch control oligonucleotides (ms) at the indicated concentrations. In the experiments in which GM-CSF (50 ng/ml; kind gift of T. Hartung, University of Konstanz, Konstanz, Germany) or G-CSF (25 ng/ml; PeproTech, BioConcept, Allschwil, Switzerland) are added, the oligonucleotides are given 2 h before addition of cytokines.
# Values are means ±S.E.M. of four independent experiments. *, p<0.05; **, p<0.01; ***, p<0.001.
# Survivin mRNA = assay: Real-time PCR quantification of survivin mRNA in neutrophils; conditions: cytokine added in vitro; A549 standard = 100%
# Protocol: (§2) Neutrophils are cultured at 1×10^6 per ml in complete culture medium. GM-CSF (50 ng/ml; kind gift of T. Hartung, University of Konstanz, Konstanz, Germany) or G-CSF (25 ng/ml; PeproTech, BioConcept, Allschwil, Switzerland) are added. The duration of GM-CSF or G-CSF stimulation is indicated in each experiment.
# Neutrophils (1×10^7) are washed with PBS and the RNA is isolated according to the RNeasy protocol (Qiagen AG, Basel, Switzerland), which includes DNase digestion. RNA is reverse transcribed with the first strand cDNA synthesis kit (Amersham Pharmacia Biotech) by using random hexanucleotides according to the manufacturer's instructions. Real-time monitoring of PCR amplification of survivin cDNA is performed with a 1/100 dilution of neutrophil cDNA as previously described (Olie et al. (2000) Cancer Research 60, 2805-2809). Relative quantification of survivin expression is performed as described (Olie et al. (2000) Cancer Research 60, 2805-2809) utilizing rRNA as an internal standard.
# as §1
# survivin = assay: Immunoblotting of survivin protein in neutrophils; conditions: cultured for 12 h in the presence of cytokine
# Protocol: as §2
# Neutrophils (5×10^6) are washed with PBS, lysed with RIPA-buffer (0.5% sodium deoxycholate, 1% Nonidet P-40, 0.1% SDS in PBS) supplemented with a protease inhibitor-cocktail (Sigma) with frequent vortexing on ice for 40 min, including two freeze/thaw cycles using a methanol/dry ice bath. After a 10-min centrifugation to remove insoluble particles, equal amounts of the cell lysates are loaded on NuPage-Gels (Invitrogen Corp., Groningen, Netherlands). Separated proteins are electrotransferred onto polyvinylidene difluoride (PVDF) membranes (Immobilion-P, Millipore, Bedford, Mass.). The filters are incubated overnight with a polyclonal anti-survivin antibody (1/1000; R&D Systems, Abingdon, UK) at 4° C. in TBS/0.1% Tween-20/3% non-fat dry milk. Purified full-length recombinant human survivin (2 μl) is provided by R&D Systems as positive control for anti-survivin immunoblotting. For loading controls, stripped filters are incubated with a monoclonal anti-β-actin antibody (1/10,000; Sigma). Filters are washed in TBS/0.1% Tween-20 for 30 min and incubated with the appropriate HRP-conjugated secondary antibody (Amersham Pharmacia Biotech, Dübendorf, Switzerland) in TBS/0.1% Tween-20/5% non-fat dry milk for 1 h. Filters are developed by an ECL-technique (ECL-Kit, Amersham Pharmacia Biotech) according to the manufacturer's instructions.
# as §1
substance,measurement,setting,value
Granulocyte macrophage colony-stimulating factor [GM-CSF],DNA-fragmentation of neutrophils with cytokine,Neutrophils,prevent DNA-fragmentation
same,survivin mRNA in normal control neutrophils after cytokine addition,Survivin mRNA,increase in survivin mRNA
same,Levels of survivin (immunoblot) in normal control neutrophils,survivin,increased
